Tests used:
[1] = tested on: A431 human epidermoid carcinoma cells; assay: Cell proliferation assay (MTT), A431; type: cell-based; conditions: compounds 0-100 μM, 72 hours, means ± SEM, NA = not active at 100 μM concentration
Description: (§1) A431 (2×10^4 cells/mL) were incubated in […] DMEM culture medium (BioWhittaker, Vallensbaek, DK). Differently, 8701-BC (2×10^4 cells/mL) were incubated in 100 μL RPMI 1640 culture medium (BioWhittaker, Vallensbaek, DK). Both cell lines were supplemented with 10% foetal calf serum (FCS; BioWhittaker, Vallensbaek, DK) and antibiotics (100 U/mL penicillin and 100 μg/mL streptomycin), at 37° C. in 5% CO2 for 8 hours, to allow adhesion. After adhesion, the medium was replaced with 100 μL medium supplemented with 0.5% FCS. After an overnight incubation, the medium was replaced and 100 μL DMEM with 10% FCS along with different concentrations (0-100 μM) of the studied compounds were added to cell cultures.
(§2) Following 72 hours, cells were treated with 10 μL of the 3-(4,5-dimethylthiazol-2-yl)-[…] (MTT) solution (5 mg/mL). Four hours later, 100 μL of propan-2-ol in a 0.04 M HCl solution were added to dissolve the formazan product. The microplates were read using an ELISA plate reader at 570 nm with a reference wavelength of 630 nm.

[2] = tested on: 8701-BC breast cancer cells; assay: Cell proliferation assay (MTT), 8701-BC; type: cell-based, human; conditions: exponentially growing 8701-BC cells, compounds 0-100 μM, 72 hours, means ± SEM, NA = not active at 100 μM concentration
Description: as §1, §2

Src (Tyr416) = target: T1, Src (Tyr416) (Homo sapiens, UniProt P12931); assay: Phospho-Src inhibition, immunoblot, 8701-BC cells after EGF stimulation; type: cell-based
T1 construct: subjected to immunoblot using phospho-specific antibodies against Src (Y416) and non pospho-specific Src as control; endogenous in cells; host or cells: 8701-BC breast cancer cells
Description: FIG. 3. […] Immunoblot analysis was performed using phospho-specific antibodies to Src (Tyr416). Filters were additionally reprobed with specific non-phospho anti-Src antibodies after stripping. Lane 1: cell control; lane 2: cells treated for 15 min with EGF (100 nM); lane 3-7: cells challenged for 3 h in the presence of 10 μM of the specified compound and then treated for 15 min with EGF (100 nM).
Immunoblot analysis was performed using phospho-specific antibodies to Src (Tyr416). Filters were additionally reprobed with specific non-phospho anti-Src antibodies after stripping.
Cells were treated as reported above but the cells were challenged with the compounds for 3 h, and then treated with 100 nM EGF (Cell Signaling Technology, MA, U.S.A.). […] later, cells were harvested and lysed in an appropriate buffer containing 1% Triton X-100. Proteins were quantitated by the BCA method (Pierce Rockford, U.S.A.). Equal amounts of total cellular protein were resolved by SDS-polyacrylamide gel electrophoresis, transferred to nitrocellulose filters and subjected to immunoblot using phospho-specific antibodies against Src (Y416) and non pospho-specific Src as control (Cell Signaling Technology, MA, U.S.A.).

K562 cells = assay: Cell proliferation assay, K562; type: cell-based, human; conditions: compounds 0-100 μM, means ± SEM
Description: (§3) MEG-01 and K562 (2×10^4 cells/mL) were incubated in 100 μL RPMI 1640 culture medium (BioWhittaker, Vallensbaek, DK), supplemented with 10% foetal calf serum (FCS; BioWhittaker, Vallensbaek, DK) and antibiotics (100 U/mL penicillin and 100 μg/mL streptomycin), at 37° C. in 5% CO2. After an overnight incubation with 100 μL medium supplemented with 0.5% FCS, the medium was replaced and 100 μL RPMI 1640 with 10% FCS along with different concentrations (0-100 μM) of the studied compounds, were added to cell cultures.

Meg-01 cells = assay: Cell proliferation assay, Meg-01; type: cell-based, human; conditions: compounds 0-100 μM, means ± SEM
Description: as §3

[3] = 10 μM compound 3 h, then 100 nM EGF 15 min, immuno blot gel area

T1 sequence (P12931 whole entry): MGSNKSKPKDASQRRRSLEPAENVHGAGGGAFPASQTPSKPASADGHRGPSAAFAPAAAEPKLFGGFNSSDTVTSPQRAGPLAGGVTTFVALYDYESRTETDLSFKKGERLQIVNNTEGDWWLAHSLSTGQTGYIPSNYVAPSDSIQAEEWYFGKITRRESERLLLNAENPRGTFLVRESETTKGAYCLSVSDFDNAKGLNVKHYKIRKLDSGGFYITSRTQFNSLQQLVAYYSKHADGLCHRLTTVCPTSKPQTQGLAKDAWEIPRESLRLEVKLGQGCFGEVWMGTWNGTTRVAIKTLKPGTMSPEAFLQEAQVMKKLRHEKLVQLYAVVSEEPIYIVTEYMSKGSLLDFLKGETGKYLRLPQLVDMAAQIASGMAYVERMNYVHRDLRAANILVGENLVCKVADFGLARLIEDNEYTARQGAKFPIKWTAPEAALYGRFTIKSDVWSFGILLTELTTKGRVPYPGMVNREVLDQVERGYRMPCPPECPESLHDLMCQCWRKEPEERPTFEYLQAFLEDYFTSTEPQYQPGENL

| Compound | IC50 [1] [µM] | IC50 [2] [µM] | also measured |
| --- | --- | --- | --- |
| COc1cc2ncnc(Nc3cccc(Cl)c3)c2cc1OC [AG1478, reference compound] | 20.2 ± 0.4 | – | – |
| CSc1nc(N2CCCCC2)c2cnn(CC(Cl)c3ccccc3)c2n1 (centres unmarked) [Compound 1a] | 37.6 ± 0.8 | 67.5 ± 1.2 | – |
| CSc1nc(N2CCOCC2)c2cnn(CC(Cl)c3ccccc3)c2n1 (centres unmarked) [Compound 1b] | 26.9 ± 0.4 | 64.2 | – |
| CCOCCNc1nc(SC)nc2c1cnn2CC(Cl)c1ccccc1 (centres unmarked) [Compound 1c] | 32.4 ± 0.6 | 59.8 ± 3.1 | – |
| CCCCNc1nc(SC)nc2c1cnn2CC(Cl)c1ccccc1 (centres unmarked) [Compound 1d] | 27.4 ± 0.5 | 63.8 ± 2.1 | – |
| CSc1nc(NCc2ccccc2)c2cnn(CC(Cl)c3ccccc3)c2n1 (centres unmarked) [Compound 1e] | 24.6 ± 0.7 | 53.2 ± 1.2 | – |
| CSc1nc(NCCc2ccccc2)c2cnn(CC(Cl)c3ccccc3)c2n1 (centres unmarked) [Compound 1f] | 27.1 ± 0.2 | 31.2 | Phospho-Src/Non-phospho-Src ratio (%) (Src (Tyr416); 10 μM compound 3 h, then 100 nM EGF 15 min, Control + EGF 56, Control 23): 9%; Non-phospho-Src (Src (Tyr416); [3]): 168 area units; Phospho-Src (Tyr416) (Src (Tyr416); [3]): 15 area units; inhibition of Src phosphorylation compared with PP2 (in words) (Src (Tyr416); immunoblot, phospho-specific antibodies to Src (Tyr416)): inhibit Src phosphorylation better than the reference compound PP2 |
| CCCNc1nc(SC)nc2c1cnn2CC(Cl)c1ccccc1 (centres unmarked) [Compound 1g] | 32.1 ± 0.5 | 64.1 ± 0.5 | – |
| CCN(CC)c1nc(SC)nc2c1cnn2CC(Cl)c1ccccc1 (centres unmarked) [Compound 1h] | 70.2 ± 1.4 | 86.9 ± 1.2 | – |
| CSc1nc(N2CCCC2)c2cnn(CC(Cl)c3ccccc3)c2n1 (centres unmarked) [Compound 1i] | 32.3 ± 0.8 | 56.3 ± 2 | – |
| CSc1nc(N2CCCCCC2)c2cnn(CC(Cl)c3ccccc3)c2n1 (centres unmarked) [Compound 1j] | – | 54.4 ± 0.8 | – |
| CSc1nc(NC2CCCCC2)c2cnn(CC(Cl)c3ccccc3)c2n1 (centres unmarked) [Compound 1k] | 43.8 ± 0.7 | 35.3 ± 0.5 | – |
| CCSc1nc(N2CCOCC2)c2cnn(CC(Cl)c3ccccc3)c2n1 (centres unmarked) [Compound 2b] | 42.3 ± 0.7 | 79.8 ± 3 | – |
| CCCCNc1nc(SCC)nc2c1cnn2CC(Cl)c1ccccc1 (centres unmarked) [Compound 2c] | 40.2 ± 0.4 | 38.8 ± 0.5 | IC50 (K562 cells): 27.4 ± 0.6 µM |
| CCCNc1nc(SCC)nc2c1cnn2CC(Cl)c1ccccc1 (centres unmarked) [Compound 2d] | 79.4 ± 1.8 | 28.6 ± 1.6 | – |
| CCSc1nc(N2CCCC2)c2cnn(CC(Cl)c3ccccc3)c2n1 (centres unmarked) [Compound 2e] | 89.3 ± 1.7 | 72.1 ± 1.7 | – |
| CCSc1nc(NCc2ccccc2)c2cnn(CC(Cl)c3ccccc3)c2n1 (centres unmarked) [Compound 2f] | – | 42.8 ± 0.8 | – |
| OC(Cn1ncc2c(N3CCOCC3)ncnc21)c1ccccc1 (centres unmarked) [Compound 3a] | 86.9 ± 2.1 | – | – |
| CCCCNc1ncnc2c1cnn2CC(O)c1ccccc1 (centres unmarked) [Compound 3b] | 83.2 ± 1.8 | – | – |
| OC(Cn1ncc2c(N3CCCCC3)ncnc21)c1ccccc1 (centres unmarked) [Compound 3c] | 13.4 ± 0.2 | – | – |

| Compound | IC50 [1] [µM] | IC50 [2] [µM] | also measured |
| --- | --- | --- | --- |
| CCCNc1ncnc2c1cnn2CC(O)c1ccccc1 (centres unmarked) [Compound 3d] | 91.2 ± 1.4 | – | – |
| OC(Cn1ncc2c(NCc3ccccc3)ncnc21)c1ccccc1 (centres unmarked) [Compound 3e] | 12.7 ± 0.7 | – | – |
| OC(Cn1ncc2c(NCCc3ccccc3)ncnc21)c1ccccc1 (centres unmarked) [Compound 3f] | 80.1 ± 2.5 | 45.6 ± 0.5 | – |
| OC(Cn1ncc2c(NCc3ccc(F)cc3)ncnc21)c1ccccc1 (centres unmarked) [Compound 3g] | 95.7 ± 2.3 | 54.4 ± 1.5 | – |
| C(=Cn1ncc2c(N3CCCCC3)ncnc21)c1ccccc1 [Compound 4a] | 69.3 ± 1.2 | – | – |
| C(=Cn1ncc2c(N3CCOCC3)ncnc21)c1ccccc1 [Compound 4b] | 59.2 ± 1 | 58.8 ± 0.7 | – |
| CCCCNc1ncnc2c1cnn2C=Cc1ccccc1 [Compound 4c] | 91.5 ± 2 | 80.5 ± 6.8 | – |
| C(=Cn1ncc2c(N3CCCCCC3)ncnc21)c1ccccc1 [Compound 4d] | 43.6 ± 1.3 | 93.7 ± 0.6 | – |
| CCCNc1ncnc2c1cnn2C=Cc1ccccc1 [Compound 4e] | 61.2 ± 1 | 57.2 ± 0.8 | – |
| CCOCCNc1ncnc2c1cnn2C=Cc1ccccc1 [Compound 4f] | – | 43.4 ± 0.4 | – |
| C(=Cn1ncc2c(N3CCCC3)ncnc21)c1ccccc1 [Compound 4g] | 63.1 ± 1 | 50.4 ± 0.1 | – |
| C(=Cn1ncc2c(NC3CCCCC3)ncnc21)c1ccccc1 [Compound 4h] | – | 50.5 ± 1.3 | – |
| C(=Cn1ncc2c(NCc3ccccc3)ncnc21)c1ccccc1 [Compound 4i] | 11.7 ± 0.1 | 65 ± 0.3 | – |
| C(=Cn1ncc2c(NCCc3ccccc3)ncnc21)c1ccccc1 [Compound 4j] | 15 ± 1.2 | 64.7 ± 0.6 | – |
| CCSc1nc(N2CCOCC2)c2cnn(C=Cc3ccccc3)c2n1 [Compound 4k] | 49.8 ± 0.8 | – | IC50 (K562 cells): 75.1 ± 1.7 µM; IC50 (Meg-01 cells): 12.1 ± 1.1 µM |
| CSc1nc(NCc2ccccc2)c2cnn(C=Cc3ccccc3)c2n1 [Compound 4l] | 39.8 ± 0.6 | – | – |
| CSc1nc(N2CCCCC2)c2cnn(C=Cc3ccccc3)c2n1 [Compound 4m] | 54.1 ± 0.7 | – | – |
| CSc1nc(N2CCOCC2)c2cnn(C=Cc3ccccc3)c2n1 [Compound 4n] | 35.7 ± 0.6 | – | – |
| CCCCNc1ncnc2c1cnn2CC(Br)c1ccccc1 (centres unmarked) [Compound 5d] | 33.6 ± 1.2 | – | IC50 (K562 cells): 34.3 ± 0.9 µM; IC50 (Meg-01 cells): 19.4 ± 0.4 µM |
| BrC(Cn1ncc2c(NC3CCCCC3)ncnc21)c1ccccc1 (centres unmarked) [Compound 5i] | 28.2 ± 0.4 | – | IC50 (K562 cells): 38.2 ± 0.8 µM; IC50 (Meg-01 cells): 32.7 ± 0.3 µM |
